Counter-ions that a name gives are not always drawn.
Legend:
[1] = mouse writhing assay (acetic acid), analgesic activity; format: in vivo, mouse (Cox standard males); conditions: for ED50 / PT (peak analgesic time), Mouse Writhing, Oral / PT (peak analgesic time), Mouse Writhing, Subcutaneous: mouse; for ED50: dose giving significant peak analgesic effect in 50 percent of test animals; for PT (peak analgesic time), Mouse Writhing, Oral / PT (peak analgesic time), Mouse Writhing, Subcutaneous: time after dosing of maximum analgesic response
Protocol: Analgesic activity for representative compounds of the instant invention was determined with two standard animal techniques. The mouse writhing assay used was a modification of the method wherein frequency of writhing [Hendershot and Sorsaith, J. Pharm. Exp. Ther. 125, 237 (1959)] is observed after intra peritoneal administration of 0.6 percent acetic acid [Koster et al., Fed. Proc. Soc. Expt. Biol. 18, 412 (1959)]. The mice were Cox standard males weighting 20-22 gm. The number of writhes was determined for each of five mice during the period 5-15 minutes after acetic acid treatment. The percent inhibition due to drug treatment was determined by comparison with control mice.
(§1) Table 1 below gives the results of testing representative compounds of this invention as analgesics by the above methods. The first four columns in Table 1 describe the particular compound tested. The next eight columns give the mouse writhing results and the rat tail jerk results both by oral and subcutaneous administration. The columns headed PT ("Peak Analgesic Time") give the time in minutes after dosing at which the maximum analgesic responses are measured. The columns headed "ED50 (mg./kg.)" give the doses (ED50) in milligrams per kilogram (mg./kg.) of body weight that produce a significant peak analgesic effect in 50 percent of test animals.

[2] = rat tail jerk assay, analgesic activity; format: in vivo, rat (Sprague-Dawley females); conditions: for ED50: dose giving significant peak analgesic effect in 50 percent of test animals; for PT (peak analgesic time), Rat Tail Jerk, Oral / PT (peak analgesic time), Rat Tail Jerk, Subcutaneous: time after dosing of maximum analgesic response
Text: The other analgesic method was the rat tail jerk assay described by Robbins, J. Amer. Pharm. Assoc. Sci. Ed., 44, 497 (1955). The rats were Sprague-Dawley females weighing 70-90 g. Briefly, the tail was held on a temperature controlled tail rest near a nichrome resistance wire through which a current could flow. A switch used to start the flow of current to heat the wire simultaneously started a timer. When a jerk of the tail was detected by the operator, the switch was released and the latency of the response was recorded as the "reaction time." The tail was placed near the hot wire stimulus for a maximum duration of 30 seconds. Twenty rats were tested as a group in a randomized order. At least five rats were used for each treatment and each rat was dosed and tested only once.
as §1

[3] = cited from earlier work
[4] = analgesic activity, general statements; format: in vivo; conditions: in words
[5] = oral, read-out: ED50, Mouse Writhing, Oral
[6] = sc, subcutaneous, read-out: ED50, Mouse Writhing, Subcutaneous
[7] = oral, read-out: ED50, Rat Tail Jerk, Oral
[8] = sc, subcutaneous, read-out: ED50, Rat Tail Jerk, Subcutaneous

CN(C)C(c1ccccc1)C1COCOC1.Cl (stereo not drawn) [dl C6 H5, H, HCl, N,N-dimethyl-α-phenyl-m-dioxane-5-methylamine hydrochloride]
ED50 [1, 5]: 28 mg/kg | PT (peak analgesic time), Mouse Writhing, Oral ([1]; oral): 45 min | PT (peak analgesic time), Mouse Writhing, Subcutaneous ([1]; subcutaneous): 15 min | ED50 [1, 6]: 15 mg/kg | ED50 [2, 7]: 27 mg/kg | PT (peak analgesic time), Rat Tail Jerk, Oral ([2]; oral): 15 min | ED50 [2, 8]: 4.5 mg/kg | PT (peak analgesic time), Rat Tail Jerk, Subcutaneous ([2]; subcutaneous): 15 min

c1ccc(C2(c3ccccc3)OC[C@H]([C@@H]3CCCCN3)O2)cc1 [Dexoxadrol, d-2,2-diphenyl-4-(2-piperdyl)-1,3-dioxolane hydrochloride]
analgesic activity (literature) [3]: mild analgesic | side effects (literature) [3]: high incidence of psychotomimetic side effects

CN(C)C(c1ccccc1)C1COCOC1 (single isomer, unassigned) [l C6 H5, H, HCl, l-N,N-dimethyl-α-phenyl-m-dioxane-5-methylamine hydrochloride]
ED50 [1, 5]: 16 mg/kg | PT (peak analgesic time), Mouse Writhing, Oral ([1]; oral): 15 min | PT (peak analgesic time), Mouse Writhing, Subcutaneous ([1]; subcutaneous): 15 min | ED50 [1, 6]: 6 mg/kg | ED50 [2, 7]: 10 to 20 mg/kg | PT (peak analgesic time), Rat Tail Jerk, Oral ([2]; oral): 15 min | ED50 [2, 8]: 7 mg/kg | PT (peak analgesic time), Rat Tail Jerk, Subcutaneous ([2]; subcutaneous): 15 min

CN(C)C(c1ccccc1)C1COCOC1 (single isomer, unassigned) [1-N,N-dimethyl-α-phenyl-m-dioxane-5-methylamine]
analgesic activity [4]: analgesically active

Cc1ccc(C(C2COCOC2)N(C)C)cc1.O=C(O)/C=C\C(=O)O (stereo not drawn) [dl 4-CH3 --C6 H4, H, Maleate, N,N-dimethyl-α-(4-methylphenyl)-m-dioxane-5-methylamine maleate]
ED50 [1, 5]: 110 mg/kg | PT (peak analgesic time), Mouse Writhing, Oral ([1]; oral): 45 min | PT (peak analgesic time), Mouse Writhing, Subcutaneous ([1]; subcutaneous): 30 min | ED50 [1, 6]: 20 mg/kg | ED50 [2, 7]: 60 mg/kg | PT (peak analgesic time), Rat Tail Jerk, Oral ([2]; oral): 45 min | ED50 [2, 8]: 8 mg/kg | PT (peak analgesic time), Rat Tail Jerk, Subcutaneous ([2]; subcutaneous): 30 min

CC1OCC(CN(C)C)O1 (stereo not drawn) [N,N,2-Trimethyl-1,3-dioxolane-4-methylamine]
analgesic activity (literature) [3]: mild analgesic | side effects (literature) [3]: cholinergic side effects

CCC1OCC(C(c2ccccc2)N(C)C)CO1 (stereo not drawn) [dl C6 H5, C2 H5, N,N-dimethyl-2-ethyl-α-phenyl-m-dioxane-5-methylamine]
duration of analgesic action in mice ([1]; mice): long acting in mice | ED50 [1, 5]: 23 mg/kg | PT (peak analgesic time), Mouse Writhing, Oral ([1]; oral): 75 min | PT (peak analgesic time), Mouse Writhing, Subcutaneous ([1]; subcutaneous): 75 min | ED50 [1, 6]: 19 mg/kg | ED50 [2, 7]: 21 mg/kg | PT (peak analgesic time), Rat Tail Jerk, Oral ([2]; oral): 15 min | ED50 [2, 8]: 3.4 mg/kg | PT (peak analgesic time), Rat Tail Jerk, Subcutaneous ([2]; subcutaneous): 15 min

CC1OCC(C(c2ccccc2)N(C)C)CO1 (stereo not drawn) [dl C6 H5, CH3, N,N,2-Trimethyl-α-phenyl-m-dioxane-5-methylamine]
ED50 [1, 5]: 19 mg/kg | PT (peak analgesic time), Mouse Writhing, Oral ([1]; oral): 15 min | PT (peak analgesic time), Mouse Writhing, Subcutaneous ([1]; subcutaneous): 15 min | ED50 [1, 6]: 3.6 mg/kg | ED50 [2, 7]: 12 mg/kg | PT (peak analgesic time), Rat Tail Jerk, Oral ([2]; oral): 15 min | ED50 [2, 8]: 2.8 mg/kg | PT (peak analgesic time), Rat Tail Jerk, Subcutaneous ([2]; subcutaneous): 20 min

CN(C)C(c1cccnc1)C1COCOC1.Cl.Cl (stereo not drawn) [dl 3-pyridyl, H, 2HCl, N,N-dimethyl-α-(3-pyridyl)-m-dioxane-5-methylamine dihydrochloride]
ED50 [1, 5]: 25 mg/kg | PT (peak analgesic time), Mouse Writhing, Oral ([1]; oral): 30 min | PT (peak analgesic time), Mouse Writhing, Subcutaneous ([1]; subcutaneous): 30 min | ED50 [1, 6]: 10 mg/kg | ED50 [2, 7]: 7 mg/kg | PT (peak analgesic time), Rat Tail Jerk, Oral ([2]; oral): 15 min | ED50 [2, 8]: 7 mg/kg | PT (peak analgesic time), Rat Tail Jerk, Subcutaneous ([2]; subcutaneous): 15 min

Reference: patent US3962269A, “1,3-Propandiol intermediates” (Eli Lilly and Company, priority 1975, dated 1976)
